Laboratory results reported in paper PMC12730060, “Design, Synthesis, and Antimalarial Evaluation of New Spiroacridine Derivatives” (Antibiotics, 2025).
Read-outs that look alike come from different tables or passages of the source.

Tests used:
P. falciparum W2 = tested on: P. falciparum W2; design: method as in PMID 30366283; conditions: read-out: IC50 against P. falciparum W2; cited from earlier work
P. falciparum 3D7 = conditions: read-out: potency against P. falciparum 3D7; cited from earlier work
P. falciparum 3D7-GFP = test: Screening at fixed concentration against unsynchronized asexual blood stages, flow cytometry (GFP); format: cell-based; conditions: Plasmodium falciparum, read-out: Inhibition (%) 10 μΜ
Procedure: In order to assess the antiplasmodial activity of the compounds, a screening with fixed concentrations at 10 μM was performed against unsynchronized cultures of the asexual blood stages of P. falciparum 3D7HT-GFP (hereafter referred to as 3D7-GFP). […] The JR intermediates were also evaluated in this assay in order to assess the relevance of the spiroacridine scaffold.
(§1) Firstly, to prepare the samples for in vitro assays, each compound was dissolved in DMSO (Sigma-Aldrich®, Merck, Darmstadt, Germany), obtaining a solution of 5 mM, from which two other solutions, at 100 μM and 10 μΜ were prepared through dilution with RPMI-1640 medium (Invitrogen™, Carlsbad, CA, USA), supplemented with AlbuMAXII (Invitrogen™, Carlsbad, CA, USA). In parallel, the parasite cultures used in the in vitro assays include the following P. falciparum strains: 3D7-GFP (MRA-1029, MR4, ATCC®, Manassas, VA, USA, chloroquine-sensitive, expressing Green Fluorescent Protein), Dd2 (MRA-150, ATCC®, Manassas, Virgínia, chloroquine-resistant), and IPC5202 (MRA-1240, ATCC®, Manassas, VA, USA, artemisinin-resistant). These cultures were obtained through BEI Resources, NIAID, NIH (MR4, ATCC®, Manassas, VA, USA), contributed by Andrew M. Talman, Robert E. Sinden, David Walliker, and Didier Ménard. The parasites were cultivated with 5% hematocrit at 37 °C and an atmosphere enriched with 5% of CO2 [54].
Then, to assess the antiplasmodial activity of the compounds, a screening assay was initially performed against the P. falciparum 3D7-GFP strain. For this, unsynchronized cultures were incubated in a 96-well flat-bottom plate at 1.2% hematocrit and 1.0% parasitemia, in the presence and absence of 1 μM and 10 μM of each compound, for 72 h at 37 °C and 5% CO2. […] Parasite growth was determined by flow cytometry (CytoFLEX, Beckman Coulter Life Sciences, Indianapolis, IN, USA) with a 96-well plate reader, using Fl-1 with an excitation wavelength of 488 nm for GFP detection. The flow cytometry data were analyzed with FlowJo v10 software (FlowJo LLC, Ashland, OR, USA) to calculate the percentage inhibition of compounds.

[1] = tested on: P. falciparum 3D7-GFP (chloroquine-sensitive); test: IC50 determination against asexual blood stages, flow cytometry (GFP); format: cell-based; conditions: Plasmodium falciparum, 3D7, 72 h, read-out: IC50 (μM) 3D7-GFP
Procedure: as §1, with “In parallel, the parasite cultures used in the in vitro assays include the following P. falciparum strains: 3D7-GFP (MRA-1029, MR4, ATCC®, Manassas, VA, USA, chloroquine-sensitive, expressing Green Fluorescent Protein), Dd2 (MRA-150, ATCC®, Manassas, Virgínia, chloroquine-resistant), and IPC5202 (MRA-1240, ATCC®, Manassas, VA, USA, artemisinin-resistant).” left out
(§2) In order to accomplish this, unsynchronized cultures of 3D7-GFP, Dd2, and MRA-1240 were incubated at 1.2% hematocrit and 1.0% parasitemia with serial three-fold dilutions of the compounds, ranging from 10,000 nM to 0.17 nM, in 96-well flat-bottom plates for 72 h at 37 °C and 5% CO2. Parasite growth was quantified by flow cytometry (CytoFLEX, Beckman Coulter Life Sciences, Indianapolis, IN, USA) using GFP detection in a 96-well plate reader (Fl-1 channel) for the 3D7-GFP strain. The others (Dd2 and MRA-1240) were stained with SYBR Green I (20×), which is also detected at 488 nm. Data analysis was performed with FlowJo v10 software (FlowJo LLC, Ashland, OR, USA), and the half-maximal inhibitory concentrations (IC50) were calculated using GraphPad Prism 5 (trial version), with mean IC50 values obtained from at least two independent experiments, each conducted in triplicate.
(§3) All statistical analyses and graphical representations were performed using the GraphPad Prism 8.0 software package. Dose–response curves were generated by fitting the data to a nonlinear regression model [log(inhibitor) vs. response—variable slope]. […] The IC50 values were obtained from the fitted curves. Each experiment was carried out in triplicate and repeated independently, and results were expressed as mean ± standard deviation.

[2] = tested on: P. falciparum Dd2 (chloroquine-resistant); test: microbe, parasite or virus in culture; format: cell-based; conditions: Plasmodium falciparum, DD2, 72 h, read-out: IC50 (μM) Dd2
Procedure: as §1, with “In parallel, the parasite cultures used in the in vitro assays include the following P. falciparum strains: 3D7-GFP (MRA-1029, MR4, ATCC®, Manassas, VA, USA, chloroquine-sensitive, expressing Green Fluorescent Protein), Dd2 (MRA-150, ATCC®, Manassas, Virgínia, chloroquine-resistant), and IPC5202 (MRA-1240, ATCC®, Manassas, VA, USA, artemisinin-resistant).” left out
as §2, §3

[3] = tested on: P. falciparum MRA-1240 (artemisinin-resistant); test: microbe, parasite or virus in culture; format: cell-based; conditions: Plasmodium falciparum, 72 h, read-out: IC50 (μM) MRA-1240
Procedure: as §1, with “In parallel, the parasite cultures used in the in vitro assays include the following P. falciparum strains: 3D7-GFP (MRA-1029, MR4, ATCC®, Manassas, VA, USA, chloroquine-sensitive, expressing Green Fluorescent Protein), Dd2 (MRA-150, ATCC®, Manassas, Virgínia, chloroquine-resistant), and IPC5202 (MRA-1240, ATCC®, Manassas, VA, USA, artemisinin-resistant).” left out
as §2, §3

[4] = tested on: monkey kidney cells (Vero E6); test: Cytotoxicity, MTT assay; format: cell-based; conditions: for IC50: Primates, read-out: IC50 (μM) Vero E6
Procedure: In the following stages, to assess the selectivity of compounds against P. falciparum over mammalian cells, the cytotoxicity against monkey kidney cells (Vero E6) was determined through MTT assay after 72h of treatment. Also, the selectivity index (SI) of compounds was calculated by the ratio between a compound’s cytotoxicity against Vero E6 cells and its antiplasmodial activity (SI = Vero E6 IC50/P. falciparum IC50).
For this, monkey kidney cells (Vero E6) were seeded at a density of 5 × 10^3 cells/mL in 96-well plates and allowed to adhere for 6 h. Vero E6 cell line was obtained from the Cell Bank of Rio de Janeiro and cultured in DMEM media (Dulbecco’s Modified Eagle Medium) plus 10% inactivated fetal bovine serum (FBS) and 1% penicillin–streptomycin. Treatments were performed by adding 100 μL of medium solutions with test drugs, resulting in concentrations ranging from 12.5 to 100 µM (DMSO 1%, v/v). After 72 h of incubation at 37 °C and under 5% of CO2, the cultures were incubated with MTT at 0.5 mg/mL for 2 h. After this, the formazan crystals were dried in room temperature and dissolved in DMSO. Cell viability was determined by measuring the absorbance at 570 nm (Absorbance microplate reader EL800, BioTek, Winooski, VT, USA), and control wells containing DMSO at 1% were considered as 100% cell viability.

erythrocytes = tested on: erythrocytes; design: method as in PMID 40572185; conditions: no cytotoxicity against erythrocytes up to this concentration; cited from earlier work
mice = tested on: mice; design: method as in PMID 31861795; conditions: acute toxicity, OECD guidelines; cited from earlier work
[5] = Vero C1008, 72 h, MTT, 12.5 to 100 µM

Structure (SMILES)	IC50 [1] [µM]	IC50 [2] [µM]	IC50 [3] [µM]	inhibition at 10 µM (P. falciparum 3D7-GFP; 3D7, 72 h) [%]	also measured
COc1cc(NC(C)CCCN)c2ncccc2c1 (stereo not drawn) [primaquine]	–	–	–	–	IC50 (P. falciparum W2): 1.7 µM; IC50 (P. falciparum 3D7): 9.4 µM
CCN(CC)CCCC(C)Nc1ccnc2cc(Cl)ccc12 (stereo not drawn) [CQ, chloroquine, reference compound]	0.02 ± 0.01	0.26 ± 0.09	0.19 ± 0.07	–	inhibition at 10 µM (P. falciparum 3D7-GFP; 72 h): 94.34 ± 0.54%; IC50 ([4]; Vero C1008, 72 h): > 100 µM
COc1cc(/C=N/NC(=O)CC#N)cc(OC)c1O [JR-28, (E)-2-cyano-N’-(4-hydroxy-3,5-dimethoxybenzylidene)acetohydrazide]	–	–	–	5.5 ± 11.5	–
N#CCC(=O)N/N=C/c1ccnc2ccccc12 [JR-18]	–	–	–	14.7 ± 7.2	–
N#CC1=CC2(c3ccccc3Nc3ccccc32)N(/N=C/c2ccc(Cl)cc2)C1=O [AMTAC-06]	–	–	–	62.4 ± 8.9	–
COc1ccc(/C=N/N2C(=O)C(C#N)=CC23c2ccccc2Nc2ccccc23)cc1 [AMTAC-02]	3.19 ± 0.49	3.12 ± 0.34	4.01 ± 0.17	–	IC50 [4, 5]: > 100 µM; half-maximal hemolytic concentration (HC50) (erythrocytes): > 400 µM
N#CC1=CC2(c3ccccc3Nc3ccccc32)N(/N=C/c2c[nH]c3ccccc23)C1=O [AMTAC-22, (E)-1′-(((1H-indol-3-yl)methylene)amino)-5′-oxo-1′,5′-dihydro-10H-spiro[acridine-9,2′-pyrrole]-4′-carbonitrile]	3.01 ± 0.52	2.34 ± 0.11	2.88 ± 0.3	–	IC50 [4, 5]: > 100 µM; reduction in cell viability ([4]; at all concentrations evaluated (12.5–100 μM), 72 h): 15–20%
N#CCC(=O)N/N=C/c1ccc(Cl)cc1 [JR-06, (E)-N’-(4-chlorobenzylidene)-2-cyanoacetohydrazide]	–	–	–	12.4 ± 1	–
COc1ccc(/C=N/NC(=O)CC#N)cc1 [JR-11, (E)-2-cyano-N’-(4-methoxybenzylidene)acetohydrazide]	–	–	–	13.4 ± 1.4	–
COc1cc(/C=N/N2C(=O)C(C#N)=CC23c2ccccc2Nc2ccccc23)cc(OC)c1O [AMTAC-24, (E)-1′-((4-hydroxy-3,5-dimethoxybenzylidene)amino)-5′-oxo-1′,5′-dihydro-10H-spiro[acridine-9,2′-pyrrole]-4′-carbonitrile]	–	–	–	66.8 ± 10.8	–
COc1cc(/C=N/N2C(=O)C(C#N)=CC23c2ccccc2Nc2ccccc23)cc(OC)c1OC [AMTAC-17]	3.28 ± 0.49	3.29 ± 0.38	4.09 ± 0.05	–	IC50 [4, 5]: > 100 µM; estimated Median Lethal Dose (LD50) (mice): greater than 5000 mg/kg
N#CCC(=O)N/N=C/c1ccccc1 [JR-09]	–	–	–	14.8 ± 0.4	–
CC(=O)N(O)CCCCCNC(=O)CCC(=O)N(O)CCCCCNC(=O)CCC(=O)N(O)CCCCCN [deferoxamine]	–	–	–	–	IC50 (P. falciparum 3D7): 27.6 µM
COc1cc(C)c2c(Oc3cccc(C(F)(F)F)c3)c(OC)cc(NC(C)CCCN)c2n1 (stereo not drawn) [tafenoquine]	–	–	–	–	IC50 (P. falciparum 3D7): 1.7 µM
N#CCC(=O)N/N=C/c1c[nH]c2ccccc12 [JR-19]	–	–	–	16.8 ± 5	–
COc1cc(/C=N/NC(=O)CC#N)cc(OC)c1OC [JR-10, (E)-2-cyano-N’-(3,4,5-trimethoxybenzylidene)acetohydrazide]	–	–	–	12.6 ± 1.4	–
N#CC1=CC2(c3ccccc3Nc3ccccc32)N(/N=C/c2ccnc3ccccc23)C1=O [AMTAC-21, (E)-5′-oxo-1′-((quinolin-4-ylmethylene)amino)-1′,5′-dihydro-10H-spiro[acridine-9,2′-pyrrole]-4′-carbonitrile]	3.78 ± 0.18	3.99 ± 0.23	4.07 ± 0.27	–	IC50 [4, 5]: > 100 µM
N#CC1=CC2(c3ccccc3Nc3ccccc32)N(/N=C/c2ccccc2)C1=O [AMTAC-01]	2.11 ± 0.6	1.37 ± 0.46	1.66 ± 0.08	–	IC50 [4, 5]: > 100 µM; half-maximal hemolytic concentration (HC50) (erythrocytes): > 400 µM
